From patent publication US20110086758A1, “Fungicidal compositions comprising 3'-bromo-2,3,4,6'-tetramethoxy-2',6-dimethylbenzophenone” (BASF SE, priority 2008, published 2011)

System: Sphaerotheca fuliginea
Assay: Field testing on melons, natural infection with Sphaerotheca fuliginea
Type: in vivo
Conditions: efficacy in % of untreated control, 3 applications
Description: The visually determined percentages of infected leaf areas were converted into efficacies in % of the untreated control: The efficacy (E) is calculated as follows using Abbot's formula: W=(1−α/β)·100 • α corresponds to the fungicidal infection of the treated plants in % and • β corresponds to the fungicidal infection of the untreated (control) plants in % At an efficacy of 0, the infection level of the treated plants corresponds to that of the untreated control plants; at an efficacy of 100, the treated plants are not infected. The expected efficacies of active compound mixtures were determined using Colby's formula (S. R. Colby, “Calculating synergistic and antagonistic responses of herbicide combinations”, Weeds 15, pp. 20-22 (1967) and compared with the observed efficacies. E=x+y−x·y/100 • expected efficacy, expressed in % of the untreated control, when using the mixture of the active compounds A and B at the concentrations a and b • x efficacy, expressed in % of the untreated control, when using the active compound A at the concentration a • y efficacy, expressed in % of the untreated control, when using the active compound B at the concentration b The trial was carried out under standardized field conditions. Melons were grown in the field. After 36 days, an application with the recited products was carried out, which was repeated two times after 7 days and after 14 days. No further active components for pathogen control were applied. The infection with the pathogen Sphaerotheca fuliginea ensued naturally. Infestation in % of leaf area affected was scored 35 days after the first application. The visually determined values of % of leaf area infected was initially averaged and then converted into efficacies as % of the untreated control. An efficacy of 0 is the same infestation as the untreated control, an efficacy of 100% is 0% infestation. The expected efficacies of active compound combinations were determined as described above using Colby's formula and compared with the observed efficacies. The active compounds were used as commercially available compositions. […]

Structure (SMILES) | Observed effect 35 days after first treatment (dose 30 g ai/ha, scored 35 days after first application) [%] | Observed effect 35 days after first treatment (dose 50 g ai/ha, scored 35 days after first application) [%] | Observed effect 35 days after first treatment (dose 100 g ai/ha, leaf area infested scored 35 days after first application) [%]
CC1COC(Cn2cncn2)(c2ccc(Oc3ccc(Cl)cc3)cc2Cl)O1 (stereo not drawn) [Difenoconazole, 1-{2-[2-chloro-4-(4-chlorophenoxy)phenyl]-4-methyl-[1,3]dioxolan-2-ylmethyl}-1H-[1,2,4]triazole] | 19 |  | 
COc1cc(C)c(C(=O)c2c(OC)ccc(Br)c2C)c(OC)c1OC [Metrafenone, 3′-bromo-2,3,4,6′-tetramethoxy-2′,6-dimethylbenzophenone] |  | 46 | 70
